Measured values: PubChem BioAssay (NCI)
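These data come from cells grown in 96-well plates and exposed to compound for 48 hours at five concentrations. TGI is the concentration that stops growth completely.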

Legend:
Test in all cases: NCI anticancer screen, dose series, 48 h
M19-MEL melanoma = tested on: M19-MEL melanoma
KM12 colon = tested on: KM12 colon
SNB-19 CNS = tested on: SNB-19 CNS
NCI-H226 lung = tested on: NCI-H226 lung
SR leukemia = tested on: SR leukemia
DLD-1 colon = tested on: DLD-1 colon
A549 NSCLC = tested on: A549 NSCLC
HT29 colon = tested on: HT29 colon
NCI-H23 lung = tested on: NCI-H23 lung
MDA-MB-231 breast = tested on: MDA-MB-231 breast

Row | SMILES | TGI (M19-MEL melanoma) | TGI (KM12 colon) | TGI (SNB-19 CNS) | TGI (NCI-H226 lung) | TGI (SR leukemia) | TGI (DLD-1 colon) | TGI (A549 NSCLC) | TGI (HT29 colon) | TGI (NCI-H23 lung) | TGI (MDA-MB-231 breast)
1 | COC(=O)/C(=N\NC(=O)C[N+](C)(C)C)C(C(=O)OC)C(=O)C(=O)Nc1ccccc1C(N)=O (stereo not drawn) | > 100 µM | > 100 µM | > 100 µM | > 100 µM | > 100 µM | > 100 µM | > 100 µM | > 100 µM | > 100 µM | 
2 | Clc1ccc(N=Nc2nc3ccccc3nc2N=Nc2ccc(Cl)cc2Cl)c(Cl)c1 | > 100 µM | > 100 µM | > 100 µM | > 100 µM | > 100 µM | > 100 µM | > 100 µM | > 100 µM | > 100 µM | 
3 | Cc1ccc(SSc2ccc(C)cc2C(=O)O)c(C(=O)O)c1 | > 100 µM | > 100 µM | > 100 µM | > 100 µM | > 100 µM | > 100 µM | > 100 µM | > 100 µM | > 100 µM | 
4 | c1cc2n(n1)CCN2 | > 10000 µM | > 10000 µM | > 10000 µM | > 9350 µM | > 9010 µM | > 10000 µM | 8580 µM | > 10000 µM | 6720 µM | > 10000 µM
5 | CC1OC(OC2C[C@](O)(C(=O)CF)Cc3c(O)c4c(c(O)c32)C(=O)c2ccccc2C4=O)CC(N)C1O (stereo partly drawn) | 0.248 µM | 0.239 µM | 5.23 µM | < 0.0171 µM | 0.0708 µM | 0.333 µM | 0.173 µM | 0.0905 µM | 0.169 µM | 0.283 µM
6 | COC(=O)c1ccccc1OCc1cc(=O)oc2ccc(C)cc12 | > 100 µM | > 100 µM | 38.9 µM | > 100 µM | > 100 µM | > 100 µM | > 100 µM | > 100 µM | > 100 µM | > 100 µM
7 | CCN(CC)CCOc1ccc(CCc2cc(OC)c(OC)c(OC)c2)cc1 | 53.8 µM | > 100 µM | > 100 µM | > 100 µM | > 100 µM | > 100 µM | > 100 µM | 39 µM |  | 
8 | COC1OC(CBr)C(OC(=O)c2ccccc2)C(O)C1Br (stereo not drawn) | > 100 µM | > 100 µM | > 100 µM | > 100 µM | > 100 µM | > 100 µM | > 100 µM | > 100 µM | > 100 µM | 
9 | O=C1C2C3C=C4c5ccccc5N(c5ccccc5)C4(C2C(=O)N1c1ccc(Cl)cc1)[C@H]1C(=O)N(c2ccc(Cl)cc2)C(=O)[C@@H]31 (stereo partly drawn) | > 100 µM | > 100 µM | > 100 µM | > 100 µM | > 100 µM | > 100 µM | > 100 µM | > 100 µM | > 100 µM | 
